# From patent publication US9107411B2, “Indolecarboxamides and benzimidazolecarboxamides as insecticides and acaricides” (BAYER INTELLECTUAL PROPERTY GMBH, priority 2011, dated 2015)
# Like-named read-outs stand apart in the source and are kept apart here.
# Legend:
# Phaedon cochleariae = assay: Phaedon test (PHAECO spray treatment); format: in vivo; details: Chinese cabbage leaf discs, after 7 days; for pest or weed control at 100 g/ha: Phaedon cochleariae, foliar, 168 h, read-out: efficacy in %
# Description: Phaedon Test ([…] Spray Treatment) Solvent: 78.0 parts by weight of acetone • • 1.5 parts by weight of dimethylformamide Emulsifier: 0.5 part by weight of alkylaryl polyglycol ether To produce an appropriate active ingredient formulation, 1 part by weight of active ingredient is mixed with the stated amounts of solvent and emulsifier, and the concentrate is diluted with emulsifier-containing water to the desired concentration. Leaf discs of Chinese cabbage (Brassica pekinensis) are sprayed with an active ingredient formulation of the desired concentration and, after drying, populated with larvae of the mustard beetle (Phaedon cochleariae). After 7 days, the efficacy in % is determined. 100% means that all of the beetle larvae have been killed; 0% means that none of the beetle larvae have been killed.
# Spodoptera frugiperda = Spodoptera frugiperda test (SPODFR spray treatment); format: in vivo; details: maize leaf discs, after 7 days
# Description: Spodoptera frugiperda Test (SPODFR Spray Treatment) Solvent: 78.0 parts by weight of acetone • • 1.5 parts by weight of dimethylformamide To produce an appropriate active ingredient formulation, 1 part by weight of active ingredient is mixed with the stated amounts of solvent and emulsifier, and the concentrate is diluted with emulsifier-containing water to the desired concentration. Leaf discs of maize (Zea mays) are sprayed with an active ingredient formulation of the desired concentration and, after drying, populated with caterpillars of the armyworm (Spodoptera frugiperda). After 7 days, the efficacy in % is determined 100% means that all of the caterpillars have been killed; 0% means that none of the caterpillars have been killed.
# logP (HPLC-MS) = format: physicochemical
# [1] = HPLC, reversed-phase column (C18), acidic range pH 2.7, acetonitrile (0.1% formic acid)/water gradient, 43° C., calibration with unbranched alkan-2-ones
# [2] = HPLC, reversed-phase column (C18), 43° C., acidic range pH 2.7, EEC directive 79/831 Annex V.A8, two values = both regioisomers (G = N)
# [3] = HPLC, reversed-phase column (C18), acidic range pH 2.7, acetonitrile (0.1% formic acid)/water gradient, 43° C., calibration with unbranched alkan-2-ones, read-out: log p
Compound,efficacy in % (Phaedon cochleariae; application rate 100 g/ha) [%],efficacy in % (Spodoptera frugiperda; application rate 100 g/ha) [%],log p (logP (HPLC-MS); [1]),log p (logP (HPLC-MS); [2]),other results
Cn1c(C(=O)NC(c2cccc(Cl)c2)C(F)(F)F)cc2cc(C(=O)NC3CC3)c(Cl)cc21 (stereo not shown) [Compound 45],100,100,3.33,,
CCn1c(C(=O)NC(c2cccc(C(F)(F)F)c2)C(F)(F)F)cc2cc(CNC(=O)C3CC3)c(Cl)cc21 (stereo not shown) [Compound 24],100,100,4.19,,
CCC(=O)NCc1cc2cc(C(=O)NC(c3cccc(C(F)(F)F)c3)C(F)(F)F)n(CC)c2cc1Cl (stereo not shown) [Compound 25],100,100,4.06,,
CCn1c(C(=O)NC(c2cc(Cl)c(F)c(Cl)c2)C(F)(F)F)cc2cc(C(=O)NC3CC3)c(Cl)cc21 (stereo not shown) [Compound 327],,,,4.29,
CCn1c(C(=O)NC(c2cccc(C(F)(F)F)c2)C(F)(F)F)cc2cc(CNC(=O)C3CC3)c(C(F)(F)F)cc21 (stereo not shown) [Compound 23],100,,4.37,,
CCn1c(C(=O)NC(c2cccc(C(F)(F)F)c2)C(F)(F)F)cc2cc(C(=O)NC3(C(F)(F)F)CC3)c(Cl)cc21 (stereo not shown) [Compound 267],100,100,4.30,,
COC(=O)Cn1c(C(=O)NC(c2cccc(C(F)(F)F)c2)C(F)(F)F)cc2cc(C(=O)NC3(C#N)CC3)c(Cl)cc21 (stereo not shown) [Compound 326],100,,,3.36,
Cn1c(C(=O)NC(c2cccc(C(F)(F)F)c2)C(F)(F)F)cc2cc(C(=O)NC3(C#N)CC3)c(Cl)cc21 (stereo not shown) [Compound 44],100,100,3.55,,
CC(C)Cn1c(C(=O)NC(c2cccc(C(F)(F)F)c2)C(F)(F)F)cc2cc(C(=O)NC3(C#N)CC3)c(Cl)cc21 (stereo not shown) [Compound 299],100,100,,4.13,
CCn1c(C(=O)NC(c2ccc3c(c2)OC(F)(F)O3)C(F)(F)F)cc2cc(C(=O)NC3CC3)c(C)cc21 (stereo not shown) [Compound 307],100,100,,3.81,
CCn1c(C(=O)NC(c2cccc(C(F)(F)F)c2)C(F)(F)F)cc2cc(C(=O)NC(C)CC#N)c(Cl)cc21 (stereo not shown) [Compound 269],100,,3.78,,
CCn1c(C(=O)NC(c2cccc(C(F)(F)F)c2)C(F)(F)F)cc2cc(C(=O)NC(C#N)(COC)COC)c(Cl)cc21 (stereo not shown) [Compound 325],100,,,4.16,
CCn1c(C(=O)NC(c2ccc(F)c(C(F)(F)F)c2)C(F)(F)F)cc2cc(C(=O)NC(CF)CF)c(C)cc21 (stereo not shown) [Compound 306],100,83,,4.03,
CCn1c(C(=O)NC(c2ccc(F)c(F)c2)C(F)(F)F)cc2cc(C(=O)NC3CC3)c(Cl)cc21 (stereo not shown) [Compound 329],,,,3.52,
Cn1c(C(=O)NC(c2cccc(C(F)(F)F)c2)C(F)(F)F)nc2cc(C(=O)NC3CC3)c(Cl)cc21 (stereo not shown) [Compound 1],,,3.4,,efficacy in % (Phaedon cochleariae; application rate 500 g/ha): 100%; efficacy in % (Spodoptera frugiperda; application rate 500 g/ha): 100%
CCn1c(C(=O)NC(c2cc(F)cc(C(F)(F)F)c2)C(F)(F)F)cc2cc(C(=O)NC3(C#N)CC3)c(C)cc21 (stereo not shown) [Compound 331],,,,4.02,
CCn1c(C(=O)NC(c2cccc(C(F)(F)F)c2)C(F)(F)F)cc2cc(C(=O)NCC#N)c(Cl)cc21 (stereo not shown) [Compound 21],100,,3.64,,
CCn1c(C(=O)NC(c2cccc(C(F)(F)F)c2)C(F)(F)F)cc2cc(C(=O)NC3(CC)CC3)c(Cl)cc21 (stereo not shown) [Compound 30],100,83,4.45,,

Compound,efficacy in % (Phaedon cochleariae; application rate 100 g/ha) [%],efficacy in % (Spodoptera frugiperda; application rate 100 g/ha) [%],log p (logP (HPLC-MS); [1]),log p (logP (HPLC-MS); [2]),other results
CCn1c(C(=O)NC(c2cccc(C(F)(F)F)c2)C(F)(F)F)cc2cc(C(=O)NC3(C)CC3C)c(Cl)cc21 (stereo not shown) [Compound 266],100,,4.41,,
O=C(NC1CC1)c1cc2nc(C(=O)NC(c3cccc(C(F)(F)F)c3)C(F)(F)F)n(CC3CC3)c2cc1Cl (stereo not shown) [Compound 322],100,100,,,
C#CCn1c(C(=O)NC(c2cccc(C(F)(F)F)c2)C(F)(F)F)nc2cc(C(=O)NC3CC3)c(Cl)cc21 (stereo not shown) [Compound 91],100,100,3.55,,
"CCn1c(C(=O)NC(c2cccc(C(F)(F)F)c2)C(F)(F)F)c(Cl)c2cc(C(=O)NC3(C#N)CC3)c(Cl)cc21 (stereo not shown) [Compound 271, 3,6-dichloro-N^5-(1-cyanocyclopropyl)-1-ethyl-N^2-{2,2,2-trifluoro-1-[3-(trifluoromethyl)phenyl]ethyl}-1H-indole-2,5-dicarboxamide]",,,,,pest or weed control at 100 g/ha (Phaedon cochleariae; application rate 100 g/ha): 100%; chromatographic logP (logP (HPLC-MS); [3]): 3.95; chromatographic logP (logP (HPLC-MS); HPLC-MS): 3.95
CCn1c(C(=O)NC(c2ccc(F)c(C(F)(F)F)c2)C(F)(F)F)nc2cc(C(=O)NC3CC3)c(Br)cc21 (stereo not shown) [Compound 332],,,,3.76,
CCn1c(C(=O)NC(c2cccc(C(F)(F)F)c2)C(F)(F)F)cc2cc(C(=O)NC3(C#N)CC3)c(C(C)C)cc21 (stereo not shown) [Compound 319],100,100,,4.08,
C=Cn1c(C(=O)NC(c2cccc(C(F)(F)F)c2)C(F)(F)F)cc2cc(C(=O)NC3(C#N)CC3)ccc21 (stereo not shown) [Compound 324],,,,3.48,
CCOC(=O)C1(NC(=O)c2cc3cc(C(=O)NC(c4cccc(C(F)(F)F)c4)C(F)(F)F)n(CC)c3cc2Cl)CC1 (stereo not shown) [Compound 34],100,83,3.99,,
C=CCN(C(=O)c1cc2nc(C(=O)NC(c3cccc(C(F)(F)F)c3)C(F)(F)F)n(CC=C)c2cc1Cl)C1CC1 (stereo not shown) [Compound 309],,,,4.74,efficacy in % (Phaedon cochleariae; application rate 500 g/ha): 83%; efficacy in % (Spodoptera frugiperda; application rate 500 g/ha): 100%
CCn1c(C(=O)NC(c2cccc(C(F)(F)F)c2)C(F)(F)F)cc2cc(C(=O)NC(C#N)C(C)C)c(Cl)cc21 (stereo not shown) [Compound 270],100,,4.37,,
"CCn1c(C(=O)NC(c2cccc(C(F)(F)F)c2)C(F)(F)F)cc2cc(CNC(C)=O)c(Cl)cc21 (stereo not shown) [Compound 26, 5-(acetamidomethyl)-6-chloro-1-ethyl-N-{2,2,2-trifluoro-1-[3-(trifluoromethyl)phenyl]ethyl}-1H-indole-2-carboxamide]",,,,,pest or weed control at 100 g/ha (Phaedon cochleariae; application rate 100 g/ha): 100%; chromatographic logP (logP (HPLC-MS); [3]): 3.77; chromatographic logP (logP (HPLC-MS); HPLC-MS): 3.77
CCNC(=O)c1cc2cc(C(=O)NC(c3ccc(F)c(C(F)(F)F)c3)C(F)(F)F)n(CC)c2cc1Cl (stereo not shown) [Compound 17],100,100,3.91,,
CCn1c(C(=O)NC(c2cccc(C(F)(F)F)c2)C(F)(F)F)cc2cc(C(=O)NC3(C4CC4)CC3)c(Cl)cc21 (stereo not shown) [Compound 29],100,83,4.45,,
CCn1c(C(=O)NC(c2cccc(C(F)(F)F)c2)C(F)(F)F)cc2cc(C(=O)NC(C#N)c3ccccc3)c(Cl)cc21 (stereo not shown) [Compound 318],100,,,4.37,
CCn1c(C(=O)NC(c2cccc(C(F)(F)F)c2)C(F)(F)F)cc2cc(C(=O)NC(C#N)(CC)CC)c(Cl)cc21 (stereo not shown) [Compound 264],100,,4.41,,
C#CC1(NC(=O)c2cc3cc(C(=O)NC(c4cccc(C(F)(F)F)c4)C(F)(F)F)n(CC)c3cc2Cl)CCC1 (stereo not shown) [Compound 33],100,,4.20,,
CCn1c(C(=O)NC(c2ccc(F)c(F)c2)C(F)(F)F)cc2cc(C(=O)NC(C)C[S+](C)[O-])c(C)cc21 (stereo not shown) [Compound 321],,,,2.76,
